Results as given in patent publication US7053189B2 (Oregon Health & Sciences University, priority 1990, dated 2006).
Where two headings read alike, the source gives them in different places.

Columns and labels:
[1] = target: D2 in pig anterior pituitary homogenates (Sus scrofa, UniProt A0ACM8QMZ9); format: binding; conditions: for Ki: read-out: D2Ki
[2] = target: T1, human D4 dopamine receptor (Homo sapiens, UniProt P21917, DEL271-302/N396T/P18R)
T1 sequence (P21917 with tags, fused parts or gaps P18R/DEL271-302/N396T): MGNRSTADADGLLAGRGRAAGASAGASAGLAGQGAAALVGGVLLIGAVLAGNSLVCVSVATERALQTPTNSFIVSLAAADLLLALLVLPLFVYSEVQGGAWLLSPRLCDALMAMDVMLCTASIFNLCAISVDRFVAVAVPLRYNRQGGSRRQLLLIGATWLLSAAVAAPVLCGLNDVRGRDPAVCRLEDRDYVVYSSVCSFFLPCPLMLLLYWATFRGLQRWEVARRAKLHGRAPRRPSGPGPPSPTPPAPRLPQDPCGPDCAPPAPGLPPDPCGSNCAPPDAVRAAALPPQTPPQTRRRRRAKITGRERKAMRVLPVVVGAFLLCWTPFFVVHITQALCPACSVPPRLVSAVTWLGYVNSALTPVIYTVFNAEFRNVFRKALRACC

[3] = target: T2, human D2 (long) (Homo sapiens, UniProt P14416); experiment: D2 dissociation constants, human D2 receptor expressed in GH(4)ZR(7) cells; format: binding
T2 construct: expressed in transfected cells; host or cells: GH(4)ZR(7)

[4] = target: T1, human D4 dopamine receptor; experiment: [3H]spiperone binding to membranes of COS-7 cells transfected with human D4 receptor construct
[5] = target: T1, human D4 dopamine receptor; experiment: biochemical
[6] = T = Ki in pig anterior pituitary homogenates, no unit in table

D2 in pig anterior pituitary homogenates, sequence (A0ACM8QMZ9 1-443): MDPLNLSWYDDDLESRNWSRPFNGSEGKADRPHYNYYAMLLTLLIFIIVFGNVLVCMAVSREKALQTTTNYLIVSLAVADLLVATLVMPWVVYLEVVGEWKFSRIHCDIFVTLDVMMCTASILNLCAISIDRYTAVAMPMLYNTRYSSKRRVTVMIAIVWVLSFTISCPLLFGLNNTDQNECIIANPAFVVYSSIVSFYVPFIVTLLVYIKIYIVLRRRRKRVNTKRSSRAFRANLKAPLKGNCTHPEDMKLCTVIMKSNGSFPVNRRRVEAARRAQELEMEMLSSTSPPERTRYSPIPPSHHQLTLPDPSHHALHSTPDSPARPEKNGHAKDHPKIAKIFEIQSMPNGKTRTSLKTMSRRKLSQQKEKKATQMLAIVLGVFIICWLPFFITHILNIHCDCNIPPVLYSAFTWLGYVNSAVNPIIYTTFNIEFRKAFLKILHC
T2 sequence (P14416 whole entry): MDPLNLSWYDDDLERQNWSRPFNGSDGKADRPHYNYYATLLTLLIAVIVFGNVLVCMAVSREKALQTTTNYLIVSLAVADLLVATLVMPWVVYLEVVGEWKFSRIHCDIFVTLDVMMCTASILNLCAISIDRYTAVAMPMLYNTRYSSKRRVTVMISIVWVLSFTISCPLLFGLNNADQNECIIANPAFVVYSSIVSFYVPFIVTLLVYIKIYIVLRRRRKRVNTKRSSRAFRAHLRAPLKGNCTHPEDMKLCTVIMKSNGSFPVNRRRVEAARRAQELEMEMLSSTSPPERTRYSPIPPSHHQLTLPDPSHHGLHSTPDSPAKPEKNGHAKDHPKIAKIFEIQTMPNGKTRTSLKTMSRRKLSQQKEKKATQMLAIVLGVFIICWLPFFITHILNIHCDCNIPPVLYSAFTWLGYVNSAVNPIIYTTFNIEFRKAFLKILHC

| Molecule | Ki [1, 6] | Ki [5] | also measured |
| --- | --- | --- | --- |
| NC1CCc2cc(O)c(O)cc2C1 (racemic) [ADTN-(±)] | 1.7 nM |  | Ki [2]: 33.7 nM |
| NC[C@H](O)c1ccc(O)c(O)c1 [(−) Noradrenaline] |  |  | Ki [1]: ~6000 nM |
| CC(C)C[C@H]1C(=O)N2CCC[C@H]2[C@]2(O)O[C@](NC(=O)[C@@H]3C=C4c5cccc6[nH]c(Br)c(c56)C[C@H]4N(C)C3)(C(C)C)C(=O)N12 [Bromocriptine] |  |  | Ki [3]: 14 nM; Ki [4]: 128 nM |
| CC(C)C[C@H]1C(=O)N2CCC[C@H]2[C@]2(O)O[C@](NC(=O)[C@@H]3C=C4c5cccc6[nH]cc(c56)C[C@H]4N(C)C3)(C(C)C)C(=O)N12 [Ergocriptine-S] | 0.4 nM |  | Ki ([4]; read-out: D4Ki): 55 nM |
| CCc1cc(Cl)c(OC)c(C(=O)NC[C@@H]2CCCN2CC)c1O [Eticlopnde] |  |  | [formula] (ratio D2Ki to D4Ki) [1]: 0.17; Ki [4]: 0.52 nM |
| OCCN1CCN(CCCN2c3ccccc3Sc3ccc(C(F)(F)F)cc32)CC1 [Fluphenazine] |  | 42 nM |  |
| O=C(c1ccc(F)cc1)C1CCN(CCn2c(=O)[nH]c3ccccc3c2=O)CC1 [Ketanserin] |  | 147 nM |  |
| CCCN(CCc1cccs1)[C@H]1CCc2c(O)cccc2C1 [N-0437] | 0.7 nM |  | Ki [2]: 93 nM |
| CCCN1CCc2cccc3c2[C@H]1Cc1ccc(O)c(O)c1-3 [NPA] | 0.4 nM |  | Ki [2]: 5.5 nM |
| CN1CCN(C2Cc3ccccc3Sc3ccc(Cl)cc32)CC1 (centres unmarked) [Octoclothepin-R] |  |  | Ki [1]: 13.5 nM |
| CCCN1CCO[C@@H]2c3cc(O)ccc3CC[C@H]21 [PHNO-(+)] | 1.2 nM |  | Ki [2]: 42 nM |
| O=c1[nH]c2ccccc2n1C1CCN(CCCC(c2ccc(F)cc2)c2ccc(F)cc2)CC1 [Pimozide] |  |  | Ki [4]: 25 nM |
| CCCN1CCC[C@@H]2Cc3n[nH]cc3C[C@H]21 [Quinpirole(−)] | 4.8 nM |  |  |
| CCN1CCC[C@H]1CNC(=O)c1c(O)c(Cl)cc(Cl)c1OC [Raclopride] |  | 253 nM |  |
| CN1CCc2cc(Cl)c(O)cc2[C@@H](c2ccccc2)C1 [SCH23390] |  | 1960 nM |  |
| Oc1cc2c(cc1O)C(c1ccccc1)CNCC2 (centres unmarked) [SKF-38393] |  |  | Ki [4]: 1600 nM |
| NCCc1c[nH]c2ccc(O)cc12 [Serotonin] |  | ~8000 nM |  |
| CN1CCN(CCCN2c3ccccc3Sc3ccc(S(=O)(=O)N(C)C)cc32)CC1 [Thioproperazine] |  | 53 nM |  |
| CSc1ccc2c(c1)N(CCC1CCCCN1C)c1ccccc1S2 (centres unmarked) [Thioridazine] |  | 12 nM |  |
| CNc1cc(OC)c(C(=O)NC2CCN(Cc3ccccc3)C2C)cc1Cl (centres unmarked) [YM-09151-2] | 0.06 nM |  |  |
| Fencidopam | 2.8 nM |  | Ki [2]: 420 nM |
